Source: patent publication US8828907B2, “Active ingredient combinations having insecticidal and acaricidal properties” (Bayer CropScience AG, priority 2009, dated 2014)

Tests used:
Type in all cases: in vivo
Conditions in all cases: single active compound
[1] = system: green peach aphid (Myzus persicae); test: Myzus persicae test (spray on infested cabbage leaves)
Description: (§1) Solvents: 78 parts by weight of acetone • • 1.5 parts by weight of dimethylformamide
(§2) Emulsifier: 0.5 part by weight of alkylaryl polyglycol ether
(§3) To produce a suitable preparation of active compound, 1 part by weight of active compound is mixed with the stated amount of solvent and emulsifier, and the concentrate is diluted with emulsifier-containing water to the desired concentration.
Cabbage leaves (Brassica oleracea) which are heavily infested by the green peach aphid (Myzus persicae) are treated by spraying with the active compound preparation of the desired concentration.
After the desired period of time, the kill in % is determined. 100% means that all of the aphids have been killed; 0% means that none of the aphids have been killed. The kill rates determined are entered into Colby's formula (see above).

[2] = system: larvae of the mustard beetle (Phaedon cochleariae); test: Phaedon cochleariae larvae test (sprayed cabbage leaves)
Description: as §1, §2, §3
Cabbage leaves (Brassica oleracea) are treated by spraying with the active ingredient formulation of the desired concentration and populated with larvae of the mustard beetle (Phaedon cochleariae) while the leaves are still moist.
After the desired period of time, the kill in % is determined. 100% means that all beetle larvae have been killed; 0% means that none of the beetle larvae have been killed. The kill rates determined are entered into Colby's formula (see above).

[3] = system: larvae of the armyworm (Spodoptera frugiperda); test: Spodoptera frugiperda larvae test (sprayed cabbage leaves)
Description: as §1, §2, §3
Cabbage leaves (Brassica oleracea) are treated by being sprayed with the preparation of active compound of the desired concentration and are populated with larvae of the armyworm (Spodoptera frugiperda) while the leaves are still moist.
After the desired period of time, the kill in % is determined. 100% means that all caterpillars have been killed; 0% means that none of the caterpillars have been killed. The kill rates determined are entered into Colby's formula (see above).

[4] = system: greenhouse red spider mite (Tetranychus urticae); test: Tetranychus urticae test (OP-resistant/spray treatment)
Description: as §1, §2, §3
Discs of bean leaves (Phaseolus vulgaris) which are infested by all stages of the greenhouse red spider mite (Tetranychus urticae) are sprayed with an active compound preparation of the desired concentration.
After the desired period of time, the effect in % is determined. 100% means that all of the spider mites have been killed; 0% means that none of the spider mites have been killed.

SMILES	Kill in % after 1d ([1]; 4 g/ha) [%]	Kill in % after 2d ([2]; 4 g/ha) [%]	Kill in % after 2d ([2]; 100 g/ha) [%]	Kill in % after 2d ([3]; 0.16 g/ha) [%]	Kill in % after 2d ([3]; 0.8 g/ha) [%]	Kill in % after 2d ([3]; 20 g/ha) [%]	Kill in % after 6d ([4]; 20 g/ha) [%]	Kill in % after 2d ([3]; 4 g/ha) [%]	Kill in % after 6d ([4]; 100 g/ha) [%]	Kill in % after 1d ([1]; 0.8 g/ha) [%]
O=C1C=C(N(CCF)Cc2ccc(Cl)nc2)CO1 [compound (I-4), 4-{[(6-chloropyrid-3-yl)methyl](2-fluoroethyl)amino}furan-2(5H)-one]	30	0	0	0	0	0	0	–	–	–
O=C1C=C(N(Cc2ccc(Cl)nc2)CC(F)F)CO1 [compound (I-5), 4-{[(6-chloropyrid-3-yl)methyl](2,2-difluoroethyl)amino}furan-2(5H)-one]	–	0	0	–	0	–	0	0	0	–
CN(Cc1cnc(Cl)c(F)c1)C1=CC(=O)OC1 [compound (I-6), 4-{[(6-chloro-5-fluorpyrid-3-yl)methyl](methyl)amino}furan-2(5H)-one]	–	–	0	–	0	0	–	–	–	70
O=C(NC(=O)c1c(F)cccc1F)Nc1ccc(Oc2ccc(C(F)(F)F)cc2Cl)cc1F [flufenoxuron, reference compound]	0	–	0	–	33	–	0	–	–	0
O=C(NC(=O)c1c(F)cccc1F)Nc1cc(Cl)c(OC(F)(F)C(F)C(F)(F)F)cc1Cl (stereo not drawn) [lufenuron, reference compound]	0	–	17	–	–	–	–	–	–	–
COc1cccc(C(=O)NN(C(=O)c2cc(C)cc(C)c2)C(C)(C)C)c1C [methoxyfenozide, reference compound]	0	–	–	–	–	83	–	33	0	–
O=C(NC(=O)c1ccccc1Cl)Nc1ccc(OC(F)(F)F)cc1 [triflumuron, reference compound]	0	0	–	50	33	–	–	–	–	0
